Measured values as given in PMC2765529 (Journal of medicinal chemistry, 2009).
Counter-ions that a name gives are not always drawn. Each block holds one compound with its values, some of them ahead of it.

Columns and labels:
[1] = Tissue biodistribution and regional brain uptake in rats; type: in vivo, male Sprague-Dawley rats; conditions: for Blood uptake: i.v., mean ± SD
human VAChT = target: T1, human VAChT (Homo sapiens, UniProt Q16572); assay: VAChT binding, competition against [^3H]vesamicol
T1 sequence (Q16572 1-532): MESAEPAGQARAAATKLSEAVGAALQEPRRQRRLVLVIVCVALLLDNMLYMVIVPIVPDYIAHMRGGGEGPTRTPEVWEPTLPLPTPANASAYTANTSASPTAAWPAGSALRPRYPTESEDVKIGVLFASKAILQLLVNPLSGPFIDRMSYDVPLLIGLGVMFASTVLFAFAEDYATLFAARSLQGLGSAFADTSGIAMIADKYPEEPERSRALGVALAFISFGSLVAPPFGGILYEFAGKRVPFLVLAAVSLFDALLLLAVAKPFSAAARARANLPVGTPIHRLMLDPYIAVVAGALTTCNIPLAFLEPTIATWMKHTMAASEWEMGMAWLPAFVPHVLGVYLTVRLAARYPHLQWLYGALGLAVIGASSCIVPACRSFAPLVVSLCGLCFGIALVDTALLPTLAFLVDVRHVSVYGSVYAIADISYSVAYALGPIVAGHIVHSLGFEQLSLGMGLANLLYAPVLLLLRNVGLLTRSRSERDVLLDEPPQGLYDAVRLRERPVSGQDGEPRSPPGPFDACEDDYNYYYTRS

IC50 (human VAChT): 0.25 ± 0.02 nM
Compound: O=C(c1ccc(Br)cc1)C1CCN([C@@H]2Cc3ccccc3C[C@H]2O)CC1 (racemic) [Compound 9b, (±)-trans-2-Hydroxy-3-(4-(4-bromobenzoyl)piperidino)tetralin hydrochloride]

IC50 (human VAChT): 4.3 ± 1 nM
Compound: O=C(c1ccccc1)C1CCN([C@@H]2Cc3ccccc3C[C@H]2O)CC1 (racemic) [Compound 9a, (±)-trans-2-Hydroxy-3-(4-benzoylpiperidino)tetralin hydrochloride]

The remaining lines, values behind:

Compound: O=C(c1ccc([18F])cc1)C1CCN([C@@H]2Cc3ccccc3C[C@H]2O)CC1 (racemic) [(±)-[^18F]9e, (±)-trans-2-Hydroxy-3-(4-(4-[^18F]fluorobenzoyl)piperidino)tetralin]
Bone uptake ([1]; 5 min p.i.): 0.307 ± 0.011 %ID/g
Brain uptake ([1]; 5 min p.i.): 0.606 ± 0.100 %ID/g
Fat uptake ([1]; 5 min p.i.): 0.088 ± 0.026 %ID/g
Heart uptake ([1]; 5 min p.i.): 0.328 ± 0.014 %ID/g
Liver uptake ([1]; 5 min p.i.): 1.939 ± 0.382 %ID/g
Muscle uptake ([1]; 5 min p.i.): 0.079 ± 0.015 %ID/g
Blood uptake ([1]; 5 min p.i., n=4 rats): 0.122 ± 0.023 %ID/g
Bone uptake ([1]; 5 min p.i., listed as racemic [^18F]9e): 0.31 %ID/g
Bone uptake ([1]; 30 min p.i.): 0.445 ± 0.032 %ID/g
Brain uptake ([1]; 30 min p.i.): 0.153 ± 0.044 %ID/g
Fat uptake ([1]; 30 min p.i.): 0.177 ± 0.039 %ID/g
Heart uptake ([1]; 30 min p.i.): 0.141 ± 0.005 %ID/g
Liver uptake ([1]; 30 min p.i.): 1.504 ± 0.271 %ID/g
Lung uptake ([1]; 30 min p.i.): 0.553 ± 0.056 %ID/g
Muscle uptake ([1]; 30 min p.i.): 0.071 ± 0.006 %ID/g
Blood uptake ([1]; 30 min p.i., n=4 rats): 0.071 ± 0.009 %ID/g
Bone uptake ([1]; 1 h p.i.): 0.623 ± 0.080 %ID/g
Brain uptake ([1]; 1 h p.i.): 0.095 ± 0.012 %ID/g
Fat uptake ([1]; 1 h p.i.): 0.196 ± 0.035 %ID/g
Heart uptake ([1]; 1 h p.i.): 0.094 ± 0.008 %ID/g
Lung uptake ([1]; 1 h p.i.): 0.346 ± 0.045 %ID/g
Muscle uptake ([1]; 1 h p.i.): 0.076 ± 0.012 %ID/g
Blood uptake ([1]; 1 h p.i., n=4 rats): 0.043 ± 0.003 %ID/g
Bone uptake ([1]; 2 h p.i.): 0.739 ± 0.044 %ID/g
Brain uptake ([1]; 2 h p.i.): 0.059 ± 0.008 %ID/g
Fat uptake ([1]; 2 h p.i.): 0.173 ± 0.042 %ID/g
Heart uptake ([1]; 2 h p.i.): 0.056 ± 0.007 %ID/g
Kidney uptake ([1]; 2 h p.i.): 0.853 ± 0.171 %ID/g
Liver uptake ([1]; 2 h p.i.): 1.188 ± 0.158 %ID/g
Lung uptake ([1]; 2 h p.i.): 0.223 ± 0.014 %ID/g
Muscle uptake ([1]; 2 h p.i.): 0.047 ± 0.006 %ID/g
Blood uptake ([1]; 2 h p.i., n=4 rats): 0.027 ± 0.004 %ID/g

Compound: (+)-trans-2-Hydroxy-3-(4-(4-[^18F]fluorobenzoyl)piperidino)tetralin [(+)-[^18F]9e]
Bone uptake ([1]; 5 min p.i.): 0.187 ± 0.015 %ID/g
Brain uptake ([1]; 5 min p.i.): 0.350 ± 0.040 %ID/g
Fat uptake ([1]; 5 min p.i.): 0.052 ± 0.017 %ID/g
Heart uptake ([1]; 5 min p.i.): 0.194 ± 0.006 %ID/g
Kidney uptake ([1]; 5 min p.i.): 0.791 ± 0.123 %ID/g
Liver uptake ([1]; 5 min p.i.): 1.849 ± 0.566 %ID/g
Lung uptake ([1]; 5 min p.i.): 0.904 ± 0.161 %ID/g
Muscle uptake ([1]; 5 min p.i.): 0.047 ± 0.010 %ID/g
Ratio Striatum: Cerebellum ([1]; 5 min p.i.): 1.15 ± 0.04
Ratio Striatum: Cortex ([1]; 5 min p.i.): 0.92 ± 0.02
Ratio Striatum: Hippocampus ([1]; 5 min p.i.): 0.99 ± 0.04
Ratio Striatum: Total Brain ([1]; 5 min p.i.): 1.02 ± 0.03
Blood uptake ([1]; 5 min p.i., n=4 rats): 0.136 ± 0.020 %ID/g
Ratio Striatum: Blood ([1]; 5 min p.i., %ID/g striatum divided by %ID/g non-striatal tissue, n=4 rats): 2.67 ± 0.57
Bone uptake ([1]; 30 min p.i.): 0.277 ± 0.080 %ID/g
Brain uptake ([1]; 30 min p.i.): 0.071 ± 0.012 %ID/g
Fat uptake ([1]; 30 min p.i.): 0.108 ± 0.053 %ID/g
Heart uptake ([1]; 30 min p.i.): 0.094 ± 0.013 %ID/g
Kidney uptake ([1]; 30 min p.i.): 0.416 ± 0.048 %ID/g
Liver uptake ([1]; 30 min p.i.): 1.239 ± 0.271 %ID/g
Lung uptake ([1]; 30 min p.i.): 0.332 ± 0.073 %ID/g
Muscle uptake ([1]; 30 min p.i.): 0.051 ± 0.010 %ID/g
Ratio Striatum: Blood ([1]; 30 min p.i.): 0.95 ± 0.18
Ratio Striatum: Cerebellum ([1]; 30 min p.i.): 1.3 ± 0.07
Ratio Striatum: Cortex ([1]; 30 min p.i.): 1.08 ± 0.09
Ratio Striatum: Hippocampus ([1]; 30 min p.i.): 0.93 ± 0.03
Ratio Striatum: Total Brain ([1]; 30 min p.i.): 1.13 ± 0.04
Blood uptake ([1]; 30 min p.i., n=4 rats): 0.087 ± 0.016 %ID/g
Bone uptake ([1]; 1 h p.i.): 0.399 ± 0.078 %ID/g
Brain uptake ([1]; 1 h p.i.): 0.041 ± 0.002 %ID/g
Fat uptake ([1]; 1 h p.i.): 0.154 ± 0.065 %ID/g
Heart uptake ([1]; 1 h p.i.): 0.051 ± 0.005 %ID/g
Kidney uptake ([1]; 1 h p.i.): 0.291 ± 0.032 %ID/g
Liver uptake ([1]; 1 h p.i.): 0.814 ± 0.120 %ID/g
Lung uptake ([1]; 1 h p.i.): 0.188 ± 0.035 %ID/g
Muscle uptake ([1]; 1 h p.i.): 0.034 ± 0.008 %ID/g
Ratio Striatum: Blood ([1]; 1 h p.i.): 0.9 ± 0.23
Ratio Striatum: Cerebellum ([1]; 1 h p.i.): 1.17 ± 0.12
Ratio Striatum: Cortex ([1]; 1 h p.i.): 0.95 ± 0.09
Ratio Striatum: Hippocampus ([1]; 1 h p.i.): 0.98 ± 0.14
Ratio Striatum: Total Brain ([1]; 1 h p.i.): 1.02 ± 0.09
Blood uptake ([1]; 1 h p.i., n=4 rats): 0.048 ± 0.007 %ID/g
Bone uptake ([1]; 2 h p.i.): 0.532 ± 0.096 %ID/g
Brain uptake ([1]; 2 h p.i.): 0.022 ± 0.004 %ID/g
Fat uptake ([1]; 2 h p.i.): 0.150 ± 0.062 %ID/g
Heart uptake ([1]; 2 h p.i.): 0.031 ± 0.006 %ID/g
Kidney uptake ([1]; 2 h p.i.): 0.194 ± 0.027 %ID/g
Liver uptake ([1]; 2 h p.i.): 0.692 ± 0.081 %ID/g
Lung uptake ([1]; 2 h p.i.): 0.112 ± 0.023 %ID/g
Muscle uptake ([1]; 2 h p.i.): 0.022 ± 0.005 %ID/g
Ratio Striatum: Blood ([1]; 2 h p.i.): 0.87 ± 0.11
Ratio Striatum: Cerebellum ([1]; 2 h p.i.): 1.14 ± 0.09
Ratio Striatum: Cortex ([1]; 2 h p.i.): 0.91 ± 0.15
Ratio Striatum: Hippocampus ([1]; 2 h p.i.): 0.99 ± 0.08
Ratio Striatum: Total Brain ([1]; 2 h p.i.): 1.04 ± 0.06
Blood uptake ([1]; 2 h p.i., n=4 rats): 0.027 ± 0.002 %ID/g

Compound: O=C(c1ccc(F)cc1)C1CCN([C@@H]2Cc3ccccc3C[C@H]2O)CC1 (relative stereo) [(±)9e, (±)-trans-2-Hydroxy-3-(4-(4-fluorobenzoyl)piperidino)tetralin]
IC50 (human VAChT): 2.7 ± 0.4 nM
Ki (human VAChT; VAChT (Ki [nM]), [^3H]vesamicol competition, mean ± SEM): 2.7 ± 0.4 nM
